The values below come from PubChem BioAssay (NCI).

Several values for one entry are separate records, joined by “and”; a condition that tells them apart may be missing. Equal values may be shown once.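 Tested at 5 concentrations; 48 h exposure; 96-well plates; endpoints linearly interpolated, else capped at highest concentration. At the GI50, growth is halved. TGI: concentration producing complete growth inhibition.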 Bounds are passed on as bounds.

Among the test systems are NCI-H226 lung; EKVX NSCLC; HCT-15 colon; RPMI-8226 leukemia; CCRF-CEM leukemia; IGROV1 ovarian; RXF 393 renal; CAKI-1 renal; UO-31 renal.
Assay in all cases: NCI tumour cell line growth inhibition, 48 h

Take `CCC/C(=N\NC(=O)c1cc2ccccc2cc1O)C(CC)C(=O)CCC(=O)N(Cc1ccccc1)Cc1ccccc1` (stereo unspecified): the TGI with NCI-H226 lung was above 100 µM; in the assay with EKVX NSCLC it was above 100 µM; in the assay with HCT-15 colon it was above 100 µM; in the assay with RPMI-8226 leukemia it was above 100 µM; in the assay with CCRF-CEM leukemia it was 41.7 µM; with IGROV1 ovarian, above 100 µM. The TGI in the assay with RXF 393 renal, in the assay with CAKI-1 renal and in the assay with UO-31 renal was above 100 µM in each case.
Regarding `Cc1cccc(NC(=O)CC#N)c1Cl`, the TGI in the assay on NCI-H226 lung, with EKVX NSCLC, with HCT-15 colon, in the assay on RPMI-8226 leukemia, in the assay with CCRF-CEM leukemia and in the assay with IGROV1 ovarian was above 100 µM in each case. Further, the TGI with CAKI-1 renal and in the assay on UO-31 renal was above 100 µM throughout.
As for `CC(=O)OCC1OC(Sc2ccccn2)C=CC1OC(C)=O` (stereo unspecified), the TGI in the assay with NCI-H226 lung, in the assay with EKVX NSCLC, in the assay with CCRF-CEM leukemia, in the assay with IGROV1 ovarian, with RXF 393 renal and in the assay on UO-31 renal was above 100 µM in each case.
With `N#CC1=C(c2ccccc2)C(O)(c2ccccc2)NC1=O` (stereo unspecified), the TGI in the assay on NCI-H226 lung, in the assay on EKVX NSCLC, in the assay on HCT-15 colon, with RPMI-8226 leukemia, in the assay on CCRF-CEM leukemia and in the assay with IGROV1 ovarian was above 100 µM in each case. Also, the TGI in the assay with RXF 393 renal, in the assay with CAKI-1 renal and with UO-31 renal was above 100 µM each time.
Consider `BrC12c3ccccc3Sc3ccccc3C1(Br)c1ccccc12` (stereo unspecified), for which the TGI in the assay with NCI-H226 lung was 38.7 µM; with HCT-15 colon, 46.3 µM; in the assay with RPMI-8226 leukemia it was 36.4 µM; in the assay with CCRF-CEM leukemia, 50.1 µM; in the assay with IGROV1 ovarian it was above 100 µM; in the assay with RXF 393 renal, above 100 µM. Besides, the TGI in the assay on CAKI-1 renal is 72.9 µM; in the assay with UO-31 renal it was above 100 µM.
`O=c1/c(=C/c2ccc3c(c2)OCO3)sc2nnc(-c3ccco3)n12`: the TGI in the assay on NCI-H226 lung, in the assay on EKVX NSCLC, with RPMI-8226 leukemia, with CCRF-CEM leukemia, with IGROV1 ovarian and in the assay on RXF 393 renal was above 100 µM each time. Also, the TGI with CAKI-1 renal and in the assay on UO-31 renal was above 100 µM in each case.
On to `COc1ccc(/C(C)=N/NC(N)=S)c(OC)c1`, for which the TGI with NCI-H226 lung, with EKVX NSCLC, in the assay with HCT-15 colon, with RPMI-8226 leukemia, in the assay on CCRF-CEM leukemia and with IGROV1 ovarian was above 100 µM in each case. The TGI in the assay with RXF 393 renal, in the assay with CAKI-1 renal and in the assay on UO-31 renal was above 100 µM in each case.
In the case of `CC(Oc1ccc2cc(C(=O)c3ccccc3)c(=O)oc2c1)C(=O)O` (stereo unspecified), the TGI in the assay with NCI-H226 lung, in the assay with EKVX NSCLC, with CCRF-CEM leukemia, in the assay on IGROV1 ovarian, in the assay on RXF 393 renal and in the assay on CAKI-1 renal was above 100 µM in each case. For the same molecule, the TGI in the assay on UO-31 renal is above 100 µM.
As for `COc1ccc(C(=O)O)c(Cc2ccc3ccccc3c2)c1`, the TGI with NCI-H226 lung, with EKVX NSCLC, in the assay on RPMI-8226 leukemia, with CCRF-CEM leukemia, in the assay on IGROV1 ovarian and in the assay with RXF 393 renal was above 100 µM throughout. The TGI in the assay with CAKI-1 renal and in the assay with UO-31 renal was above 100 µM each time.
For `CC(=O)OCC1OC(n2c(-c3ccccc3)c(C)c(C)c(C#N)c2=S)C(OC(C)=O)C(OC(C)=O)C1OC(C)=O` (stereo unspecified), the TGI in the assay with NCI-H226 lung was above 100 µM; in the assay on EKVX NSCLC, 46.9 µM and 77 µM; with HCT-15 colon it was above 100 µM; in the assay on CCRF-CEM leukemia, above 100 µM; in the assay on IGROV1 ovarian, above 100 µM; in the assay with RXF 393 renal, above 100 µM. Besides, the TGI is above 50 µM in the assay on CAKI-1 renal; > 50 µM and 37.9 µM in the assay on UO-31 renal. For the same molecule, the GI50 in the assay with CCRF-CEM leukemia is 49.2 µM and > 100 µM; in the assay with RXF 393 renal, 23.8 µM and 68.3 µM; in the assay on UO-31 renal, > 50 µM and 12 µM.
For `CC1=C(C(=O)Nc2ccccc2C)C(c2ccc(C3C(C(=O)Nc4ccccc4C)=CNC=C3C(=O)Nc3ccccc3C)cc2)C(C(=O)Nc2ccccc2C)=C(C)N1`, the TGI with NCI-H226 lung was 33.5 µM; with EKVX NSCLC it was 40.7 µM; with HCT-15 colon, 41 µM; in the assay with RPMI-8226 leukemia it was above 73 µM; in the assay with CCRF-CEM leukemia it was above 29 µM; in the assay on IGROV1 ovarian it was 37.1 µM. Also, the TGI in the assay with RXF 393 renal worked out at 85.1 µM; with CAKI-1 renal, 45.7 µM; in the assay with UO-31 renal it was 40 µM.
Take `c1ccc(C2N3CCCCC3[C@@H]3c4[nH]c5ccccc5c4CCN23)cc1` (stereo partly specified): the TGI in the assay with EKVX NSCLC, in the assay with HCT-15 colon, in the assay on RPMI-8226 leukemia, with CCRF-CEM leukemia, in the assay on IGROV1 ovarian and with RXF 393 renal was above 100 µM each time. Besides, the TGI in the assay on CAKI-1 renal and in the assay with UO-31 renal was above 100 µM throughout.
Consider `Oc1cc2c(cc1O)-c1[nH]ncc1CC2`, for which the TGI was 69 µM in the assay with NCI-H226 lung; 61.1 µM in the assay on EKVX NSCLC; above 100 µM in the assay with HCT-15 colon; 47.7 µM with CCRF-CEM leukemia; above 100 µM with IGROV1 ovarian; above 100 µM with CAKI-1 renal. This molecule gave a TGI in the assay on UO-31 renal of 79.1 µM.
For `COc1ccc(Cn2c(Br)c3c(c2-c2cc(OC)c(OC)c(OC)c2)CCc2sc(NC(C)=O)nc2-3)cc1`, the GI50 in the assay on NCI-H226 lung is 39.3 µM; with HCT-15 colon, 3.12 µM; in the assay with RPMI-8226 leukemia it was 4.23 µM; in the assay with IGROV1 ovarian it was 4.46 µM; in the assay with RXF 393 renal, 2.24 µM; with CAKI-1 renal, 4.21 µM. The GI50 with UO-31 renal is 3.69 µM. Moreover, the TGI was above 100 µM in the assay with NCI-H226 lung; 32.2 µM with HCT-15 colon; above 100 µM with RPMI-8226 leukemia; above 100 µM with IGROV1 ovarian; 10.7 µM in the assay with RXF 393 renal; above 100 µM in the assay with CAKI-1 renal. The molecule also showed a TGI in the assay on UO-31 renal of 35.1 µM.
As for `CC(O[Si](C)(C)C)C1C=CC(C)n2c(=O)n(-c3ccccc3)c(=O)n21` (stereo unspecified), the TGI with EKVX NSCLC, in the assay with HCT-15 colon, in the assay with RPMI-8226 leukemia, in the assay on IGROV1 ovarian, in the assay with RXF 393 renal and with CAKI-1 renal was above 100 µM each time. The molecule further returned a TGI in the assay on UO-31 renal above 100 µM.
On to `O=C(c1ccc2c3c(ccc(C(=O)C(F)(F)F)c13)CC2)C(F)(F)F`, for which the TGI with NCI-H226 lung, in the assay with EKVX NSCLC, in the assay on HCT-15 colon, with IGROV1 ovarian, with RXF 393 renal and with CAKI-1 renal was above 100 µM throughout. The same molecule displayed a TGI in the assay with UO-31 renal above 100 µM.
On to `ClC[Si]12OCCN(CCO1)CCO2`, for which the TGI in the assay on NCI-H226 lung, in the assay with RPMI-8226 leukemia, in the assay on CCRF-CEM leukemia, with IGROV1 ovarian, in the assay with RXF 393 renal and in the assay with CAKI-1 renal was above 100 µM each time. This molecule yielded a TGI in the assay on UO-31 renal above 100 µM.
Regarding `Cc1cc2c(cc1C)[n+](=O)c(C(=O)/C=C/c1ccccc1Cl)c(C)n2[O-]`, the TGI in the assay with NCI-H226 lung is above 100 µM; in the assay on EKVX NSCLC it was above 100 µM; with HCT-15 colon, 75.3 µM; with RPMI-8226 leukemia, above 100 µM; in the assay on CCRF-CEM leukemia, above 100 µM; in the assay with IGROV1 ovarian it was 37.9 µM. For the same molecule, the TGI in the assay on CAKI-1 renal worked out at 43.2 µM; with UO-31 renal, 48.2 µM.
For the molecule `Cc1cc2c(c(N)c1C)C(=O)c1ccccc1C2=O`, the TGI with HCT-15 colon was above 100 µM; in the assay on RPMI-8226 leukemia, above 100 µM; with CCRF-CEM leukemia, above 100 µM; with IGROV1 ovarian it was above 100 µM; in the assay with RXF 393 renal, above 100 µM; in the assay on CAKI-1 renal, 55.3 µM. In the assay with UO-31 renal, this molecule came in with a TGI of 33.1 µM.
On to `O=C1OC2C(O)C(=O)OC2C1O` (stereo unspecified), for which the TGI in the assay on NCI-H226 lung, in the assay with EKVX NSCLC, with HCT-15 colon, in the assay on CCRF-CEM leukemia, in the assay on IGROV1 ovarian and with RXF 393 renal was above 100 µM in each case. In addition, the TGI with CAKI-1 renal and in the assay with UO-31 renal was above 100 µM throughout.
As for `CCSc1nc2n(c(=S)n1)CCN2C`, the TGI is 42.8 µM in the assay with NCI-H226 lung; 69.6 µM in the assay on EKVX NSCLC; 40.6 µM in the assay on HCT-15 colon; 61.7 µM with RPMI-8226 leukemia; 45.9 µM in the assay with IGROV1 ovarian; 23.7 µM in the assay on RXF 393 renal. Moreover, the TGI in the assay with CAKI-1 renal was 55.4 µM; in the assay on UO-31 renal, 58.9 µM.
As for `CC1=C(c2cc(C(=O)Nc3nccs3)nc(NC#N)n2)Sc2ccccc2N1`, the TGI with NCI-H226 lung, with EKVX NSCLC, with HCT-15 colon, in the assay with RPMI-8226 leukemia, in the assay on CCRF-CEM leukemia and in the assay with IGROV1 ovarian was above 100 µM throughout. The TGI in the assay with CAKI-1 renal and in the assay with UO-31 renal was above 100 µM each time.
In the case of `CC1CCC23COC(=O)C2C(O)CCC3C1(C)CC(O)c1ccoc1` (stereo unspecified), the TGI in the assay with NCI-H226 lung, in the assay on EKVX NSCLC, in the assay with HCT-15 colon, in the assay on CCRF-CEM leukemia, in the assay with IGROV1 ovarian and with RXF 393 renal was above 100 µM in each case. Further, the TGI with UO-31 renal is above 100 µM.
Turning to `O=c1[nH]c(/C=C(\O)c2ccncc2)nc2ccccc12`, the TGI in the assay on NCI-H226 lung, with EKVX NSCLC, in the assay on HCT-15 colon, in the assay with RPMI-8226 leukemia, in the assay on CCRF-CEM leukemia and in the assay with IGROV1 ovarian was above 100 µM each time. The TGI in the assay with CAKI-1 renal and in the assay on UO-31 renal was above 100 µM each time.
